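Interpolation was linear, between the two tested concentrations surrounding the appropriate level; five concentrations were tested over 48 hours in 96-well plates. At the TGI there is no net growth.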
What was measured:
Experiment in all cases: growth of human tumour cells (NCI), 48 h
[1] = tested on: 786-0 renal
[2] = tested on: A498 renal
[3] = tested on: HCT-15 colon
[4] = tested on: HOP-62 NSCLC
[5] = tested on: HT29 colon
[6] = tested on: M14 melanoma
[7] = tested on: MDA-MB-231 breast
[8] = tested on: MOLT-4 leukemia
[9] = tested on: NCI-H23 lung
[10] = tested on: NCI-H522 lung
[11] = tested on: OVCAR-4 ovarian
[12] = tested on: OVCAR-5 ovarian
[13] = tested on: RXF 393 renal
[14] = tested on: SK-MEL-2 melanoma
[15] = tested on: SK-OV-3 ovarian
[16] = tested on: SNB-19 CNS
[17] = tested on: SNB-75 CNS
[18] = tested on: SR leukemia
[19] = tested on: T-47D breast
[20] = tested on: UACC-257 melanoma

SMILES | TGI [1] [µM] | TGI [2] [µM] | TGI [3] [µM] | TGI [4] [µM] | TGI [5] [µM] | TGI [6] [µM] | TGI [7] [µM] | TGI [8] [µM] | TGI [9] [µM] | TGI [10] [µM] | TGI [11] [µM] | TGI [12] [µM] | TGI [13] [µM] | TGI [14] [µM] | TGI [15] [µM] | TGI [16] [µM] | TGI [17] [µM] | TGI [18] [µM] | TGI [19] [µM] | TGI [20] [µM]
CC12CCCCC1=C(F)C(F)(F)S2 (centres undefined) | 45.9 | > 100 | 76.7 | > 100 | 56.5 | > 83.6 | > 100 | 36 | > 100 | 45.3 | > 100 | 97.7 | > 51.8 | > 100 | > 100 | > 100 | > 100 | 28 | 74.5 | 51.6
COc1c2c(nc3ccccc13)-c1cc(C(CC(=O)OC(C)(C)C)C(=O)OC(C)C)c(CO)c(=O)n1C2 (centres undefined) | > 100 | > 100 | > 100 | > 100 | > 100 | > 100 | > 100 | > 100 | > 100 | > 100 | > 100 | > 100 | > 100 | > 100 | > 100 | > 100 | > 100 | > 100 | > 100 | > 100
CC(=O)C(C(=O)c1ccc(C)cc1)[C@H]1OC(C)(C)O[C@H]1[C@H]1COC(C)(C)O1 (some centres undefined) | 8.75 | 14.7 | 31.6 | 14.3 | 9.35 | 14.4 | 13.6 | > 50 | 10 | 14.2 | 9.37 | 18.3 | 9.01 | 9.52 | 18.4 | 17.3 | 10.8 | > 50 | 18.9 | 11.9
NC(=O)CSc1c2cc(O)ccc2nc2ccc(O)cc12 | > 10 | > 10 | > 10 | > 10 | > 10 | > 10 | > 10 | > 10 | > 10 | > 10 | > 10 | > 10 | > 10 | > 10 | > 10 | > 10 | > 10 | > 10 | > 10 | > 10
Cc1nc2ccc(S(=O)(=O)NS(=O)(=O)c3ccc(-c4ccccc4)cc3)cc2c(=O)n1NS(=O)(=O)c1ccc(-c2ccccc2)cc1 | > 100 | > 100 | > 100 | > 100 | > 100 | > 100 | > 100 | > 100 | > 100 | > 100 | > 100 | > 100 | > 100 | > 100 | > 100 | > 100 | > 100 | > 100 | > 100 | > 100
CCOP(=O)(OCC)/C(C#N)=C/c1ccccn1 | > 100 | > 100 | > 100 | > 100 | > 100 | > 100 | > 100 | > 100 | > 100 | > 100 | > 100 | > 100 | > 100 |  | > 100 | > 100 | > 100 | > 100 | > 100 | > 100
CC(=O)c1cccc(NC(=O)C(=O)c2c(O)c3ccccc3oc2=O)c1 | > 100 | > 100 | > 100 | > 100 | > 100 | > 100 | > 100 | > 100 | > 100 | > 100 | > 100 | > 100 | > 100 |  | > 100 | > 100 | > 100 | > 100 | > 100 | > 100
CC(=O)O[C@H]1CC[C@@]2(C)C(=CC[C@@H]3[C@@H]2CC[C@]2(C)c4c(n[nH]c4C)C[C@@H]32)C1 | 35.1 | 41 | 34.2 | 37.8 | 23.5 | 37.3 | 38.4 | 53.4 | 34.5 | 23 | 33.3 | 31.1 | 23.9 |  | 46.1 | 42.3 | 25.3 | 58.7 | 25 | 33.2
O=C(c1ccccc1)N1C(=O)N(c2ccccc2)C(=Nc2ccccc2)C1=Nc1ccccc1 | > 100 | > 100 | > 100 | > 100 | > 100 |  | > 100 | > 100 | > 100 | > 100 | > 100 | > 100 | > 100 | > 100 | > 100 | > 100 | > 100 | > 100 | > 100 | > 100
COc1ccc2cc(CNCCCCCCCCNCc3ccc4cc(OC)ccc4c3)ccc2c1 | > 100 | 9.68 | > 100 | 10.2 | 8.46 |  | > 100 | 7.5 | > 100 | 69.4 | 9.55 | 10.1 | > 100 | 24.7 |  | 7.83 | 11.1 | 2.76 | 91 | 10.1
